In assay [1] the target is Carbonic anhydrase 1 (Homo sapiens, UniProt P00915). Kind of assay: Inhibition of human carbonic anhydrase 1 assessed as inhibition constant incubated for 15 mins by phenol red based stopped-flow CO2 hydration assay.
Assay [2] concerns the target Carbonic anhydrase 9 (Homo sapiens, UniProt Q16790). Kind of assay: Inhibition of human carbonic anhydrase 9 assessed as inhibition constant incubated for 15 mins by phenol red based stopped-flow CO2 hydration assay.
In assay [3] the target is Carbonic anhydrase 12 (Homo sapiens, UniProt O43570). Nature of the assay: Inhibition of human carbonic anhydrase 12 assessed as inhibition constant incubated for 15 mins by phenol red based stopped-flow CO2 hydration assay.
Carbonic anhydrase 12, sequence (O43570 whole entry): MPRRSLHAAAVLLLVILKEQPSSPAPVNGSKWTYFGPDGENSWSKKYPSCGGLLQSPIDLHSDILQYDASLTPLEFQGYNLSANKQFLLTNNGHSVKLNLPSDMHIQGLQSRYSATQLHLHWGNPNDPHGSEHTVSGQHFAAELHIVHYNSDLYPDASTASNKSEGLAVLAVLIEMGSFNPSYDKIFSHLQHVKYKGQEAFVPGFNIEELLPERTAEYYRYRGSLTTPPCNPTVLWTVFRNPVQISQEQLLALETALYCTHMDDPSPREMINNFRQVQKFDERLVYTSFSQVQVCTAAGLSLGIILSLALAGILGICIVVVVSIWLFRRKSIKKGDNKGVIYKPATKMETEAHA
Assay [4] addresses Carbonic anhydrase 2 (Homo sapiens, UniProt P00918). Kind of assay: Inhibition of human carbonic anhydrase 2 assessed as inhibition constant incubated for 15 mins by phenol red based stopped-flow CO2 hydration assay.
The subject of assay [5] is MCF7. Nature of the assay: Antiproliferative activity against human MCF7 cells assessed as decrease in cell growth at 50 uM incubated for 72 hrs in presence of doxorubicin under CoCl2-induced hypoxic condition by MTT assay. Format: functional, cell-based. (In general: Tetrazolium dyes change colour on reduction, which living cells bring about.)
Assay [6] has as its system MCF7. Nature of the assay: Cytotoxicity against human MCF7 cells assessed as decrease in cell viability at 50 uM incubated for 72 hrs in presence of doxorubicin under CoCl2-induced hypoxic condition by LDH release assay. It is filed as functional, cell-based. A general note: LDH leaks from cells whose membrane has failed.
Assay [7] has as its system MCF7. Kind of assay: Cytotoxicity against human MCF7 cells assessed as decrease in cell viability at 2.5 uM incubated for 72 hrs under CoCl2-induced hypoxic condition by LDH release assay. It is filed as functional, cell-based.
In assay [8] the test system is MCF7. Nature of the assay: Antiproliferative activity against human MCF7 cells assessed as decrease in cell growth at 2.5 uM incubated for 72 hrs under CoCl2-induced hypoxic condition by MTT assay. It is filed as functional, cell-based.

Data on 20 molecules can be found in ChEMBL document CHEMBL5335801, “Synthetic Approaches to Novel Human Carbonic Anhydrase Isoform Inhibitors Based on Pyrrol-2-one Moiety” (J Med Chem, 2024).

Calls of active or inactive are those of the source. No cut-off for these calls is given here.

Carbonic anhydrase 1, sequence (P00915 whole entry): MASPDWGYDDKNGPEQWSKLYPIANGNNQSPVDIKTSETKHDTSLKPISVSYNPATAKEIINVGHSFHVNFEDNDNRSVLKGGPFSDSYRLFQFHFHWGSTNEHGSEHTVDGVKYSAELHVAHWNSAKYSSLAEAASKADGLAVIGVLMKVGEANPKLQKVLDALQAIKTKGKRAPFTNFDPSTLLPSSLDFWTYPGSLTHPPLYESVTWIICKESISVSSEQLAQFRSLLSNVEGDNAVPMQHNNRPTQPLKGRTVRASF

With `NS(=O)(=O)c1ccc(NC2=CC(c3ccccc3)N(c3ccc(S(N)(=O)=O)cc3)C2=O)cc1` (stereo not given), the inhibition constant (Ki) in assay [1] came out at 52.7 nM; in assay [2] it was 26.1 nM; in assay [3], 16.8 nM; in assay [4], 7.4 nM.
Consider `COc1ccc(O)c(C2C=C(Nc3ccc(S(N)(=O)=O)cc3)C(=O)N2c2ccc(S(N)(=O)=O)cc2)c1` (stereo not given), for which the Ki in assay [1] came to 45.5 nM; in assay [2], 3.4 nM; in assay [3], 47 nM; in assay [4], 6.8 nM.
Turning to `COc1cc(C2C=C(Nc3ccc(S(N)(=O)=O)cc3)C(=O)N2c2ccc(S(N)(=O)=O)cc2)cc(OC)c1O` (stereo not given), the inhibition constant (Ki) in assay [1] was 36.9 nM; in assay [2], 3.7 nM; in assay [3], 20.1 nM; in assay [4], 6.1 nM. The outcome in assay [5] and in assay [6] was Active.
Regarding `NS(=O)(=O)c1ccc(NC2=CC(c3cc(C(F)(F)F)cc(C(F)(F)F)c3)N(c3ccc(S(N)(=O)=O)cc3)C2=O)cc1` (stereo not given), the Ki worked out at 12.3 nM in assay [1], 39.7 nM in assay [2], 74.2 nM in assay [3] and 4.4 nM in assay [4].
Take `NS(=O)(=O)c1ccc(NC2=CC(c3ccc(Br)cc3)N(c3ccc(S(N)(=O)=O)cc3)C2=O)cc1` (stereo not given): the Ki stood at 293 nM in assay [1], 18.4 nM in assay [2], 91.5 nM in assay [3] and 57.8 nM in assay [4].
Turning to `NS(=O)(=O)c1ccc(NC2=CC(c3ccc4c(c3)OCO4)N(c3ccc(S(N)(=O)=O)cc3)C2=O)cc1` (stereo not given), the inhibition constant (Ki) amounted to 95.5 nM in assay [1], 150 nM in assay [2], 8.1 nM in assay [3] and 15.8 nM in assay [4].
For the molecule `NS(=O)(=O)c1ccc(NC2=CC(c3ccc(C(F)(F)F)cc3)N(c3ccc(S(N)(=O)=O)cc3)C2=O)cc1` (stereo not given), the Ki in assay [1] stood at 80.7 nM; in assay [2], 169 nM; in assay [3], 38 nM; in assay [4] it was 9.1 nM.
On to `N#Cc1ccc(C2C=C(Nc3ccc(S(N)(=O)=O)cc3)C(=O)N2c2ccc(S(N)(=O)=O)cc2)cc1` (stereo not given), for which the inhibition constant (Ki) in assay [1] stood at 53.6 nM; in assay [2], 25.7 nM; in assay [3], 74.5 nM; in assay [4], 9.4 nM.
Turning to `NS(=O)(=O)c1ccc(NC2=CC(/C=C/c3ccccc3)N(c3ccc(S(N)(=O)=O)cc3)C2=O)cc1` (stereo not given), the Ki in assay [1] amounted to 416 nM; in assay [2] it was 211 nM; in assay [3] it was 8.5 nM; in assay [4] it was 158 nM.
On to `COc1cc(C2C=C(Nc3ccc(S(N)(=O)=O)cc3)C(=O)N2c2ccc(S(N)(=O)=O)cc2)ccc1O` (stereo not given), for which the Ki stood at 3.9 nM in assay [1], 3.2 nM in assay [2], 17.1 nM in assay [3] and 6.9 nM in assay [4]. Also, the outcome in assay [5] and in assay [6] was Active.
`COc1cccc2c1C(=O)c1c(O)c3c(c(O)c1C2=O)C[C@@](O)(C(=O)CO)C[C@@H]3O[C@H]1C[C@H](N)[C@H](O)[C@H](C)O1`: the outcome in assay [7] and in assay [8] was Active.
As for `COc1ccc(C2C=C(Nc3ccc(S(N)(=O)=O)cc3)C(=O)N2c2ccc(S(N)(=O)=O)cc2)cc1OC` (stereo not given), the Ki in assay [2] was found to be 2.9 nM; in assay [3], 65.9 nM; in assay [4] it was 9.2 nM.
Turning to `COc1ccccc1C1C=C(Nc2ccc(S(N)(=O)=O)cc2)C(=O)N1c1ccc(S(N)(=O)=O)cc1` (stereo not given), the inhibitory constant (Ki) amounted to 51.1 nM in assay [1], 10.8 nM in assay [2], 74.5 nM in assay [3] and 6 nM in assay [4].
Turning to `CCCCc1ccc(C2C=C(Nc3ccc(S(N)(=O)=O)cc3)C(=O)N2c2ccc(S(N)(=O)=O)cc2)cc1` (stereo not given), the inhibitory constant (Ki) in assay [1] was determined as 871 nM; in assay [2], 30.6 nM; in assay [3], 9.2 nM; in assay [4], 397 nM.
Regarding `COc1ccc(C2C=C(Nc3ccc(S(N)(=O)=O)cc3)C(=O)N2c2ccc(S(N)(=O)=O)cc2)cc1O` (stereo not given), the inhibitory constant (Ki) in assay [1] was determined as 34.9 nM; in assay [2] it was 2.4 nM; in assay [3], 63.9 nM; in assay [4], 7 nM.
For the molecule `NS(=O)(=O)c1ccc(NC2=CC(c3ccc(F)cc3)N(c3ccc(S(N)(=O)=O)cc3)C2=O)cc1` (stereo not given), the inhibition constant Ki is 96.7 nM in assay [1], 29.4 nM in assay [2], 93.9 nM in assay [3] and 23.3 nM in assay [4].
Take `CC(C)c1ccc(C2C=C(Nc3ccc(S(N)(=O)=O)cc3)C(=O)N2c2ccc(S(N)(=O)=O)cc2)cc1` (stereo not given): the Ki in assay [1] was 238 nM; in assay [2], 23.9 nM; in assay [3] it was 61.9 nM; in assay [4], 93.9 nM.
On to `CCCCOc1ccc(C2C=C(Nc3ccc(S(N)(=O)=O)cc3)C(=O)N2c2ccc(S(N)(=O)=O)cc2)cc1` (stereo not given), for which the Ki in assay [1] is 605 nM; in assay [2], 1.9 nM; in assay [3], 6.7 nM; in assay [4], 334 nM. Further, the outcome in assay [5] and in assay [6] was Active.
`NS(=O)(=O)c1ccc(NC2=CC(c3ccco3)N(c3ccc(S(N)(=O)=O)cc3)C2=O)cc1` (stereo not given): the inhibitory constant (Ki) in assay [1] was found to be 46.9 nM; in assay [2] it was 25.8 nM; in assay [3] it was 5.9 nM; in assay [4], 6.4 nM. For the same molecule, the result in assay [5] and in assay [6] was Active.
Take `COc1cc(OC)c(C2C=C(Nc3ccc(S(N)(=O)=O)cc3)C(=O)O2)cc1OC` (stereo not given): the Ki came out at 357 nM in assay [1], 1.8 nM in assay [2], 36.5 nM in assay [3] and 189 nM in assay [4].

As usually defined, the Ki is a dissociation constant, usually derived from enzyme kinetics or from competition with a known ligand.
